According to US8367724B2, “Ester compound and use thereof” (Sumitomo Chemical Company, Limited, priority 2007, dated 2013):

Tests used:
[1] = tested on: common mosquito (Culex pipens pallens) females; experiment: Mortality of common mosquito females, oil solution sprayed in a chamber (Test Example 2); assay type: in vivo; settings: 0.7 ml of 0.00625% oil solution sprayed in 70 cm cubic chamber; ten females; recovered after ten minutes; dead counted after 24 hours; 2 repetition
Protocol: Each 0.00625 parts of the present compounds (1) to (3) produced in the above production Examples was dissolved in 10 parts of dichloromethane, and the solution was mixed with 89.99375 parts of deodorized kerosene to prepare a 0.00625% oil solution.
Ten common mosquito (Culex pipens pallens) females were released in a cubic chamber having each side of 70 cm, and 0.7 ml of the 0.00625% oil solution of the present compound prepared above was sprayed into the chamber through a small window on a side of the chamber using a spraying gun at a pressure of 8.8×10^4 Pa. After ten minutes, common mosquito females were recovered in a clean cup (bottom diameter 8.2 cm) with a cotton wool containing a 0.5% aqueous sugar, and allowed to stand until the next day. After 24 hours, the number of dead mosquitoes was counted, and a mortality was calculated (2 repetition).
In addition, the same as above test was performed using, in place of present compounds (1) to (3), 4-methoxymethyl-2,3,5,6-tetrafluorobenzyl (1R)-trans-3-(2-cyano-1-propenyl)-2,2-dimethylcyclopropanecarboxylate (ratio of isomers regarding double bond: Z/E=about 2/1; compound described in U.S. Pat. No. 6,908,945B2; hereinafter refereed to as Comparative Compound (4)) as a control.

Adult houseflies = experiment: Knock-down of adult houseflies, oil solution sprayed in a chamber (Test Example 1); assay type: in vivo, housefly; settings: 0.7 ml of 0.025% oil solution sprayed in 70 cm cubic chamber; 10 adult houseflies; counted two minutes after spraying; 2 repetitions
Protocol: Each 0.025 part of the present compounds (1) to (3) produced in the above Production Examples was dissolved in 10 parts of dichloromethane, and the solution was mixed with 89.975 parts of deodorized kerosene to prepare a 0.025% oil solution.
Adult houseflies (5 males and 5 females, total 10) were released in a cubic chamber having each side of 70 cm, and 0.7 ml of the 0.025% oil solution of the present compound prepared above was sprayed into the chamber through a small window on a side of the chamber using a spraying gun at a pressure of 8.8×10^4 Pa. Two minutes after spraying, the number of knocked-down houseflies was counted (2 repetitions).
In addition, the same as above test was performed by using, in place of the present compounds (1) to (3), 4-methyl-2,3,5,6-tetrafluorobenzyl (1R)-trans-3-(2-methyl-1-propenyl)-2,2-dimethylcyclopropanecarboxylate represented by the formula: […]

Row | SMILES | Mortality (%) [1] | Number of knock-down houseflies (Adult houseflies)
1 | CC(C#N)=C[C@@H]1[C@@H](C(=O)OCc2c(F)c(F)c(C)c(F)c2F)C1(C)C (racemic) [Present compound (1), 4-methyl-2,3,5,6-tetrafluorobenzyl (1R)-trans-3-(2-cyano-1-propenyl)-2,2-dimethylcyclopropanecarboxylate] | 95% | 10
2 | COc1c(F)c(F)c(COC(=O)[C@@H]2[C@@H](C=C(C)C#N)C2(C)C)c(F)c1F (racemic) [Present compound (2), 4-methoxy-2,3,5,6-tetrafluorobenzyl (1R) trans-3-(2-cyano-1-propenyl)-2,2-dimethylcyclopropanecarboxylate] | 100% | 10
3 | C=CCc1c(F)c(F)c(COC(=O)[C@@H]2[C@@H](C=C(C)C#N)C2(C)C)c(F)c1F (racemic) [Present compound (3), 4-allyl-2,3,5,6-tetrafluorobenzyl (1R)-trans-3-(2-cyano-1-propenyl)-2,2-dimethylcyclopropanecarboxylate] | 70% | 9
4 | CC(C)=C[C@@H]1[C@@H](C(=O)OCc2c(F)c(F)c(C)c(F)c2F)C1(C)C [Comparative compound (1), 4-methyl-2,3,5,6-tetrafluorobenzyl (1R)-trans-3-(2-methyl-1-propenyl)-2,2-dimethylcyclopropanecarboxylate, reference compound] |  | 0
5 | COc1c(F)c(F)c(COC(=O)[C@@H]2[C@@H](C=C(C)C)C2(C)C)c(F)c1F [Comparative compound (2), 4-methoxy-2,3,5,6-tetrafluorobenzyl (1R)-trans-3-(2-methyl-1-propenyl)-2,2-dimethylcyclopropanecarboxylate, reference compound] |  | 0
6 | C=CCc1c(F)c(F)c(COC(=O)[C@@H]2[C@@H](C=C(C)C)C2(C)C)c(F)c1F [Comparative compound (3), 4-allyl-2,3,5,6-tetrafluorobenzyl (1R)-trans-3-(2-methyl-1-propenyl)-2,2-dimethylcyclopropanecarboxylate, reference compound] |  | 0
7 | COCc1c(F)c(F)c(COC(=O)[C@@H]2[C@@H](C=C(C)C#N)C2(C)C)c(F)c1F [Comparative compound (4), 4-methoxymethyl-2,3,5,6-tetrafluorobenzyl (1R)-trans-3-(2-cyano-1-propenyl)-2,2-dimethylcyclopropanecarboxylate, reference compound] | 16% | 
